Active and inactive are the calls of the source. No cut-off for these calls is given here.
biological target: T1, E-selectin (Homo sapiens) (UniProt P16581); test: Compound was tested at 0.05-100 mM concentration to inhibit ca++ mediated binding of HL-60 cells to Selectin E adsorbed onto a multi-well plate; Active; assay type: cell-based
T1 sequence (whole entry): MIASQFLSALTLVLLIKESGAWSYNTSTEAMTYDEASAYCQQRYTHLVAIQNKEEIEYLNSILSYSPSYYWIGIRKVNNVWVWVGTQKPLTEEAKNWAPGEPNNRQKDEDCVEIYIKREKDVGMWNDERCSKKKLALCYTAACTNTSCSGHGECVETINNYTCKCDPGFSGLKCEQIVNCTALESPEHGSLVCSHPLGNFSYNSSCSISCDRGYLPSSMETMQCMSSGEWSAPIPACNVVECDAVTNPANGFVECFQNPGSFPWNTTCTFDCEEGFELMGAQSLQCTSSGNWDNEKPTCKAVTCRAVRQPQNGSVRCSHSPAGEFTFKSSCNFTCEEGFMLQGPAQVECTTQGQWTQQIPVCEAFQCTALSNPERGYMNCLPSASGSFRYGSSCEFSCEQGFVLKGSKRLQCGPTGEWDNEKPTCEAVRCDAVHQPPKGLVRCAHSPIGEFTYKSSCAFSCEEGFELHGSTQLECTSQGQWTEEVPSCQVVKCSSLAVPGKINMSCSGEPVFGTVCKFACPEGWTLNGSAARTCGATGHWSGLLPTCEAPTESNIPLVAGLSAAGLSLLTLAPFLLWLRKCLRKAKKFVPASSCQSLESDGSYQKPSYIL

Activity, active:
CC(=O)N[C@H]1[C@H]([C@H](O)[C@H](O)CO)O[C@@](O[C@H]2[C@@H](O)[C@@H](CO)O[C@@H](O[C@@H]([C@H](O[C@@H]3O[C@@H](C)[C@@H](O)[C@@H](O)[C@@H]3O)[C@H](C=O)NC(C)=O)[C@H](O)CO)[C@@H]2O)(C(=O)O)C[C@@H]1O
CC1OC(OCCOC2CC(CO)C(O)C(OCC(=O)O)C2O)C(O)C(O)C1O (stereo not drawn)
COC1OC(C)C(O)(CC(=O)CCCOC2(C(=O)O)CC(O)C(NC(C)=O)C([C@@H](O)[C@H](O)CO)O2)C(O)C1O (stereo partly drawn)
